Results from ChEMBL document CHEMBL3734671, “Design and synthesis of an in vivo-efficacious PIM3 kinase inhibitor as a candidate anti-pancreatic cancer agent” (Bioorg Med Chem Lett, 2015).

What was measured:
CYP1A2 = target: T1, CYP1A2 (Homo sapiens, UniProt P05177); experiment: Inhibition of CYP1A2 (unknown origin) at 10 uM; assay type: ADME
T1 sequence (P05177 whole entry): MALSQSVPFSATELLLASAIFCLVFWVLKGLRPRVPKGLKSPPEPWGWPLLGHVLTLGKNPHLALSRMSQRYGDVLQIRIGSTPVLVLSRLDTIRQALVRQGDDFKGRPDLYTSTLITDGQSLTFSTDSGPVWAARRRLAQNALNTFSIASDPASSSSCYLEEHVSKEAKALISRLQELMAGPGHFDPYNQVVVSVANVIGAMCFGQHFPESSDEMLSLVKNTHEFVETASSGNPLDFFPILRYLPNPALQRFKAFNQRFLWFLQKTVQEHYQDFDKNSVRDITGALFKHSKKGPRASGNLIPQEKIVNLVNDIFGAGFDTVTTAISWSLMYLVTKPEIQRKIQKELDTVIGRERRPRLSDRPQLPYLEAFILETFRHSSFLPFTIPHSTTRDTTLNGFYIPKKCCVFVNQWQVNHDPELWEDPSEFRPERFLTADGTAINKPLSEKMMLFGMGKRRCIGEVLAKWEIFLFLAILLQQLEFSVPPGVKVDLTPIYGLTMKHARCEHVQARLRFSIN

[1] = target: Tyrosine-protein kinase Lck (Homo sapiens) (UniProt P06239); experiment: Inhibition of LCK (unknown origin) at 200 nM by electrophoretic mobility shift assay
[2] = target: Rho-associated protein kinase 1 (Homo sapiens) (UniProt Q13464); experiment: Inhibition of ROCK1 (unknown origin) at 200 nM by electrophoretic mobility shift assay
[3] = target: Serine/threonine-protein kinase pim-1 (Homo sapiens, UniProt P11309); experiment: Inhibition of PIM1 (unknown origin) at 200 nM by electrophoretic mobility shift assay
[4] = target: Proto-oncogene tyrosine-protein kinase Src (Homo sapiens) (UniProt P12931); experiment: Inhibition of SRC (unknown origin) at 200 nM by electrophoretic mobility shift assay
[5] = target: Serine/threonine-protein kinase Chk1 (Homo sapiens) (UniProt O14757); experiment: Inhibition of CHK1 (unknown origin) at 200 nM by electrophoretic mobility shift assay
[6] = target: Dual specificity tyrosine-phosphorylation-regulated kinase 1B (Homo sapiens) (UniProt Q9Y463); experiment: Inhibition of DYRK1B (unknown origin) at 200 nM by electrophoretic mobility shift assay
[7] = target: Ephrin type-B receptor 4 (Homo sapiens) (UniProt P54760); experiment: Inhibition of EPHB4 (unknown origin) at 200 nM by electrophoretic mobility shift assay
CYP2D6 = CYP2D6 (Homo sapiens, UniProt P10635); experiment: Inhibition of CYP2D6 (unknown origin) at 10 uM; assay type: ADME
[8] = target: Protein kinase C alpha type (Homo sapiens) (UniProt P17252); experiment: Inhibition of PKCalpha (unknown origin) at 200 nM by electrophoretic mobility shift assay
[9] = target: Ephrin type-A receptor 2 (Homo sapiens) (UniProt P29317); experiment: Inhibition of EPHA2 (unknown origin) at 200 nM by electrophoretic mobility shift assay
[10] = target: Death-associated protein kinase 1 (Homo sapiens, UniProt P53355); experiment: Inhibition of DAPK1 (unknown origin) at 200 nM by electrophoretic mobility shift assay
[11] = Growth inhibition of human PANC1 cells after 72 hrs by CCK-8 assay; assay type: functional, cell-based; settings: PANC-1, 72 h
CYP3A4 = CYP3A4 (Homo sapiens, UniProt P08684); experiment: Inhibition of CYP3A4 (unknown origin) at 10 uM; assay type: ADME
[12] = target: Dual specificity mitogen-activated protein kinase kinase 1 (Homo sapiens) (UniProt Q02750); experiment: Inhibition of MAP2K1 (unknown origin) at 200 nM by ELISA
[13] = target: Mitogen-activated protein kinase 1 (Homo sapiens) (UniProt P28482); experiment: Inhibition of Erk2 (unknown origin) at 200 nM by electrophoretic mobility shift assay
[14] = target: Mitogen-activated protein kinase 14 (Homo sapiens) (UniProt Q16539); experiment: Inhibition of p38alpha (unknown origin) at 200 nM by electrophoretic mobility shift assay
[15] = target: Serine/threonine-protein kinase PAK 4 (Homo sapiens) (UniProt O96013); experiment: Inhibition of PAK4 (unknown origin) at 200 nM by electrophoretic mobility shift assay
Homo sapiens = organism: Homo sapiens; experiment: Inhibition of p70S6k (unknown origin) at 200 nM by electrophoretic mobility shift assay
[16] = target: Tyrosine-protein kinase receptor TYRO3 (Homo sapiens) (UniProt Q06418); experiment: Inhibition of TYRO3 (unknown origin) at 200 nM by electrophoretic mobility shift assay
CYP2C9 = CYP2C9 (Homo sapiens, UniProt P11712); experiment: Inhibition of CYP2C9 (unknown origin) at 10 uM; assay type: ADME
[17] = target: Mitogen-activated protein kinase kinase kinase 9 (Homo sapiens) (UniProt P80192); experiment: Inhibition of MLK1 (unknown origin) at 200 nM by ELISA
[18] = target: Casein kinase I isoform epsilon (Homo sapiens) (UniProt P49674); experiment: Inhibition of CK1 epsilon (unknown origin) at 200 nM by electrophoretic mobility shift assay
[19] = target: RAF proto-oncogene serine/threonine-protein kinase (Homo sapiens) (UniProt P04049); experiment: Inhibition of RAF1 (unknown origin) at 200 nM by ELISA
[20] = target: Vascular endothelial growth factor receptor 2 (Homo sapiens) (UniProt P35968); experiment: Inhibition of KDR (unknown origin) at 200 nM by electrophoretic mobility shift assay
[21] = target: Mitogen-activated protein kinase 9 (Homo sapiens) (UniProt P45984); experiment: Inhibition of JNK2 (unknown origin) at 200 nM by electrophoretic mobility shift assay
[22] = target: High affinity nerve growth factor receptor (Homo sapiens) (UniProt P04629); experiment: Inhibition of TRKA (unknown origin) at 200 nM by electrophoretic mobility shift assay
[23] = target: Hepatocyte growth factor receptor (Homo sapiens) (UniProt P08581); experiment: Inhibition of MET (unknown origin) at 200 nM by electrophoretic mobility shift assay
[24] = target: 3-phosphoinositide-dependent protein kinase 1 (Homo sapiens) (UniProt O15530); experiment: Inhibition of PDK1 (unknown origin) at 200 nM by electrophoretic mobility shift assay
[25] = target: Fibroblast growth factor receptor 1 (Homo sapiens) (UniProt P11362); experiment: Inhibition of FGFR1 (unknown origin) at 200 nM by electrophoretic mobility shift assay
[26] = target: Tyrosine-protein kinase JAK3 (Homo sapiens) (UniProt P52333); experiment: Inhibition of JAK3 (unknown origin) at 200 nM by electrophoretic mobility shift assay
[27] = target: CDK2/Cyclin A2 (Homo sapiens) (UniProt P24941+P20248); experiment: Inhibition of CDK2/CycA2 (unknown origin) at 200 nM by electrophoretic mobility shift assay; assay type: protein-complex assay
[28] = target: Serine/threonine-protein kinase Sgk1 (Homo sapiens) (UniProt O00141); experiment: Inhibition of SGK (unknown origin) at 200 nM by electrophoretic mobility shift assay

Tyrosine-protein kinase Lck (Homo sapiens), sequence (P06239 2-509 limits assumed): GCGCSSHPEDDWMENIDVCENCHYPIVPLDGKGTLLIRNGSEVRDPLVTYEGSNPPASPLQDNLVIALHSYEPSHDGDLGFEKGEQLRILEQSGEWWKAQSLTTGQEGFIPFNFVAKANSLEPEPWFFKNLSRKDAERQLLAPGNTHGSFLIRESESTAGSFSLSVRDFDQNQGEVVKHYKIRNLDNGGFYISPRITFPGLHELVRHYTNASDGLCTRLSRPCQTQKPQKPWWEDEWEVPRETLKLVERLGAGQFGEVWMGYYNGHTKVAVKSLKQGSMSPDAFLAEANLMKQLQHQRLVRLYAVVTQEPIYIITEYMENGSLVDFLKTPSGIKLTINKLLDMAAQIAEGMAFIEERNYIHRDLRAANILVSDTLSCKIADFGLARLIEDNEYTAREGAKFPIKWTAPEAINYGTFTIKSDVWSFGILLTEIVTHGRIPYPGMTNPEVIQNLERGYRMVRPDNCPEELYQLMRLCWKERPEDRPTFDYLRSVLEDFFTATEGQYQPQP
Casein kinase I isoform epsilon (Homo sapiens), sequence (P49674 whole entry, looked up, canonical isoform): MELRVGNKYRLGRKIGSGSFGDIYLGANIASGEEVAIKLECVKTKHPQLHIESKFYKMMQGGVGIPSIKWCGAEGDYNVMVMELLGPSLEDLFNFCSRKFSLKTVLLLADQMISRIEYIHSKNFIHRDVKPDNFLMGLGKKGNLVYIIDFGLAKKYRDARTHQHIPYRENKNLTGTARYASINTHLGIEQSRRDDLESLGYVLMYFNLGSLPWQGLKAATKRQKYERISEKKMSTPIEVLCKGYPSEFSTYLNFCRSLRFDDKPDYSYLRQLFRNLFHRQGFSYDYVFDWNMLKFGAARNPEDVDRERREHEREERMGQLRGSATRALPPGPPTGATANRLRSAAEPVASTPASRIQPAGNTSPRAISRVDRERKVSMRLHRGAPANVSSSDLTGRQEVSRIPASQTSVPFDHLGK
Rho-associated protein kinase 1 (Homo sapiens), sequence (Q13464 2-1354 limits assumed): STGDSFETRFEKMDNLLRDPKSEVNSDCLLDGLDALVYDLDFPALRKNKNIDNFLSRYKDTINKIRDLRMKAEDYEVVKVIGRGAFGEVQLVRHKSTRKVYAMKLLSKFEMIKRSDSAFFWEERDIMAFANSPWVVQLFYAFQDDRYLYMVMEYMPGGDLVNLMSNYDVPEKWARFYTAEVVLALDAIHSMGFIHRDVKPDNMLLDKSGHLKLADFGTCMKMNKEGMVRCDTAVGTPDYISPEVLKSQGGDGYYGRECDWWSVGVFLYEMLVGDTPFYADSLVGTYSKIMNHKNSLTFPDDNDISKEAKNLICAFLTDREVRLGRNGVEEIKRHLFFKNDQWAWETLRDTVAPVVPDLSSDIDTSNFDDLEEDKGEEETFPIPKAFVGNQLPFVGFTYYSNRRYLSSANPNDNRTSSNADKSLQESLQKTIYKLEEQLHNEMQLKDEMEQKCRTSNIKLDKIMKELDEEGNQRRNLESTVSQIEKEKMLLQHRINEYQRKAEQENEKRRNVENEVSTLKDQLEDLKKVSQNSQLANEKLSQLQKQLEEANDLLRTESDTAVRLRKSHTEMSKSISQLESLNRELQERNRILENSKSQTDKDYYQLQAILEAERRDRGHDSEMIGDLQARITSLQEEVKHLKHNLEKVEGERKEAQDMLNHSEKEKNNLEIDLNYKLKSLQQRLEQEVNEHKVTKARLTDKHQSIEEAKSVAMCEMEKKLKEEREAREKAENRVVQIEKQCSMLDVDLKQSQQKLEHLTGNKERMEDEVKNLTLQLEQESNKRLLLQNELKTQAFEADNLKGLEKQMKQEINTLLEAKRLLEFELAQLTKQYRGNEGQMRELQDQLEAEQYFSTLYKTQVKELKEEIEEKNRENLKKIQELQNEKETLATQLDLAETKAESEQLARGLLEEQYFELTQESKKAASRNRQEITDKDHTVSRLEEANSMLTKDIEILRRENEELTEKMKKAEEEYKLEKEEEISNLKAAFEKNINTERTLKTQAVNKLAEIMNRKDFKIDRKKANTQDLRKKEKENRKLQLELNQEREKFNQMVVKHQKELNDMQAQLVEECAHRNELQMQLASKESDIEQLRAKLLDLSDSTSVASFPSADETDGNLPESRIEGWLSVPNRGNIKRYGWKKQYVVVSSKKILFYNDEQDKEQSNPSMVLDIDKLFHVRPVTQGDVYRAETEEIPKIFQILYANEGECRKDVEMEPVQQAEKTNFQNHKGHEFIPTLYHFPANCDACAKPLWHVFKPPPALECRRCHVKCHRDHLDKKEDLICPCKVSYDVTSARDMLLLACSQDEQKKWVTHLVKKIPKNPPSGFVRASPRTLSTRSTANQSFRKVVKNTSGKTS
Hepatocyte growth factor receptor (Homo sapiens), sequence (P08581 whole entry): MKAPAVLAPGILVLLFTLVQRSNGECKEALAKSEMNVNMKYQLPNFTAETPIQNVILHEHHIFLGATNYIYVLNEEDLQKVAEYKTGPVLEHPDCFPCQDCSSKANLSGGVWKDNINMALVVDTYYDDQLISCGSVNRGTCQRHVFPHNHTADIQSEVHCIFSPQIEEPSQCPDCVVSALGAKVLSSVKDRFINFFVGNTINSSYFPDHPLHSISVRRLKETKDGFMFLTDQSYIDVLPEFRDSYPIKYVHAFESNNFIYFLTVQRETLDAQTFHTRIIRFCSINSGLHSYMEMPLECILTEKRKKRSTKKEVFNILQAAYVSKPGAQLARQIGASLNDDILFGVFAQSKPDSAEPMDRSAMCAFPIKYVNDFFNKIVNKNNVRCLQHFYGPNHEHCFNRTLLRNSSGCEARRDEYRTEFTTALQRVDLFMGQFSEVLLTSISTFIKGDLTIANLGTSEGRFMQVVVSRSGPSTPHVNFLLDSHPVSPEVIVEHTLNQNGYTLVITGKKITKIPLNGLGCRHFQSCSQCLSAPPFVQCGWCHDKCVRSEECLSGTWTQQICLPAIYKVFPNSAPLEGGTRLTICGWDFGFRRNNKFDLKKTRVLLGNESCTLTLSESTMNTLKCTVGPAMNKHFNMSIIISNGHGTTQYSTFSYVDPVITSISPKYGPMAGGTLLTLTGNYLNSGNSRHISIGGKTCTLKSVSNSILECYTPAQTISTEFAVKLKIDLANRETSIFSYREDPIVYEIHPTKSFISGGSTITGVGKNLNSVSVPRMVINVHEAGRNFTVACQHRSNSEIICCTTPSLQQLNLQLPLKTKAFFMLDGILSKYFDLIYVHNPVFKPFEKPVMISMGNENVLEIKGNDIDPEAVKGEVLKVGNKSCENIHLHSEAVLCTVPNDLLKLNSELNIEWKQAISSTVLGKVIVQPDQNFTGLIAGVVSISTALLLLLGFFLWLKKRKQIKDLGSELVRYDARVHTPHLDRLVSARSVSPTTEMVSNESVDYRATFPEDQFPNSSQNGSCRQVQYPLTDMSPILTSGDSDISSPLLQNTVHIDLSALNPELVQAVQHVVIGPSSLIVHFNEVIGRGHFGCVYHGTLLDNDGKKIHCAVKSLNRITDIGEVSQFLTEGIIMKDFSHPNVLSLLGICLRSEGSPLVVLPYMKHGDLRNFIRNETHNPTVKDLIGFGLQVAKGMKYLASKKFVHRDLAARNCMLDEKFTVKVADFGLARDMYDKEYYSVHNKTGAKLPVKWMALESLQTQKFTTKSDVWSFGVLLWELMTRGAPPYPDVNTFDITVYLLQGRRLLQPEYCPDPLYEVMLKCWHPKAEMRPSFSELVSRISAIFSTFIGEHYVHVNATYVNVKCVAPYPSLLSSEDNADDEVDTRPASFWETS
Tyrosine-protein kinase receptor TYRO3 (Homo sapiens), sequence (Q06418 whole entry): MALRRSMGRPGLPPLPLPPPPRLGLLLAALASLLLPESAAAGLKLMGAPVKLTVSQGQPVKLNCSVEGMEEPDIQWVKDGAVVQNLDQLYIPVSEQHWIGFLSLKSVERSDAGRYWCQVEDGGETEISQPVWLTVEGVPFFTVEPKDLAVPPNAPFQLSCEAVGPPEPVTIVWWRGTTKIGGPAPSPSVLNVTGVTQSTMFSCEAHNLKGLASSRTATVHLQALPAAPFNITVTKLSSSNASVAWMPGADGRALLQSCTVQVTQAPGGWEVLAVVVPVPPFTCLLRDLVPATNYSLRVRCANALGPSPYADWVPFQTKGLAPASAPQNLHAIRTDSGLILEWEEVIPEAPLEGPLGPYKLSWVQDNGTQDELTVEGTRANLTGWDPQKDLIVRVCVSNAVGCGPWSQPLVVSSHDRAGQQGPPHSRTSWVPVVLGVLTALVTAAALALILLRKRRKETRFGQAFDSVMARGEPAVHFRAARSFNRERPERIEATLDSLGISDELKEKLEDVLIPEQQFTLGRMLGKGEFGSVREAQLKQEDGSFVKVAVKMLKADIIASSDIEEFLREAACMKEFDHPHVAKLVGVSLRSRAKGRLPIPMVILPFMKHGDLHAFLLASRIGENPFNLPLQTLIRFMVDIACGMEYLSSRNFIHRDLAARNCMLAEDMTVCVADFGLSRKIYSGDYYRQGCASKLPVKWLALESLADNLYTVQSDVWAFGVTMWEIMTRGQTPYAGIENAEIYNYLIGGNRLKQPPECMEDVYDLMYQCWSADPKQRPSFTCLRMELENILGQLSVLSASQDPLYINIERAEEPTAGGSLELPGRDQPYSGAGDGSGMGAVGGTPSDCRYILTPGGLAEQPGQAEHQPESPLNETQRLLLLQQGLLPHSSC
CYP2D6, sequence (P10635 whole entry): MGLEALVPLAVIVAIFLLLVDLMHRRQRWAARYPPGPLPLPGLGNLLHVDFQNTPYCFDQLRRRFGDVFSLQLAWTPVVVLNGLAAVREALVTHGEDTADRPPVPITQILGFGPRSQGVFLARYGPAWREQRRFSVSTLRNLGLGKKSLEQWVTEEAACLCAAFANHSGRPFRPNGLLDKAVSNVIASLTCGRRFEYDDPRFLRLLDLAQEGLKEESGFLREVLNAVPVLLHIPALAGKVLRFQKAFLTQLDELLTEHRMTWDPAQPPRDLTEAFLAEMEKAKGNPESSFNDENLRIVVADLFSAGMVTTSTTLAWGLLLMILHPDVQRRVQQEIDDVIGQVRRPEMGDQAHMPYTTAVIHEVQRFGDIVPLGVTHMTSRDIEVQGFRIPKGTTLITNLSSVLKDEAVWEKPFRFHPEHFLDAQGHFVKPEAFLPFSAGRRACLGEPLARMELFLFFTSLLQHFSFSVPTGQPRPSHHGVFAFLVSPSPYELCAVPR

Row | SMILES | inhibition at 10 µM (CYP1A2) [%] | inhibition [1] [%] | inhibition [2] [%] | inhibition [3] [%] | inhibition [4] [%] | inhibition [5] [%] | inhibition [6] [%] | inhibition [7] [%] | inhibition at 10 µM (CYP2D6) [%] | inhibition [8] [%] | inhibition [9] [%] | inhibition [10] [%] | IC50 [11] [µM] | inhibition at 10 µM (CYP3A4) [%] | inhibition [12] [%] | inhibition [13] [%] | inhibition [14] [%] | inhibition [15] [%] | inhibition (Homo sapiens) [%] | inhibition [16] [%] | also measured
1 | COc1ccc2c(c1C(C)N1CCNCC1)O/C(=C\c1n[nH]c3ncccc13)C2=O (stereo unspecified) | 2 | 0.1 | 77 | 99.4 | 0.7 | 4.1 | 48 | 9.4 | 14 | 83.6 | -0.3 | 94.9 | 4 | < 1 | -0.4 | 0.2 | -1 | -6.7 | 47.3 | 3.5 | inhibition at 10 µM (CYP2C9): < 1%; inhibition [17]: -1.8%; inhibition [18]: -0.5%; inhibition [19]: -9.9%; inhibition [20]: 2%; inhibition [21]: -0.5%; inhibition [22]: 10.3%; inhibition [23]: 0.5%; inhibition [24]: 0.2%; inhibition [25]: 3.1%; inhibition [26]: 4.4%; inhibition [27]: 13.7%; inhibition [28]: 0.6%
2 | COc1ccc2c(c1CN1CCNCC1)O/C(=C\c1n[nH]c3ncccc13)C2=O | 33 | -5.2 | 88.9 | 102 | -0.9 | 9.2 | 24.8 | -3.1 | 23 | 82.5 | -2.2 | 80.5 | 5.6 | 39 | -7.7 | 4.9 | -1.8 | 13 | 66.5 | -2.7 | inhibition at 10 µM (CYP2C9): < 1%; inhibition [17]: -3.4%; inhibition [18]: 3.1%; inhibition [19]: 11.3%; inhibition [20]: -5%; inhibition [21]: 1.8%; inhibition [22]: 1.8%; inhibition [23]: -2.3%; inhibition [24]: -3.7%; inhibition [25]: -4%; inhibition [26]: 1.5%; inhibition [27]: 28.2%; inhibition [28]: 4.3%
